Results on 89 compounds are retold here after a melting point compilation (Tetko et al.; mined from patent text by program, amines drawn as free bases though some values may be those of a salt).

Take `O=[N+]([O-])c1cnccc1NCCCCO`: the melting point (usually the temperature, or range, at which the solid turns liquid) was in the range of 80 to 82 °C. For the compound `CC(C)(O)c1ccc(N2CCN(c3ccncc3)CC2)cc1`, the melting point lay in the range of 234 to 235 °C. `Cc1ccc(S(=O)(=O)Nc2cc(C(=O)O)c3c(c2)C(C(=O)O)CC(c2ccccc2)N3)cc1` (centres undefined): the melting point fell in the range of 235 to 237 °C.

`COC(=O)CC(=O)c1cc(F)c(Cl)cc1Cl`: the melting point is 77 to 79 °C. `CC(C)[C@@H]1CC[C@@H](C)C[C@H]1O[C@@H]1OC(=O)[C@@H]2[C@H]1C2(C)C` registered a melting point of 82 °C.

`CC(C)(C)NC(=O)N1CC(Oc2cccc(C(F)(F)F)c2)C1` yielded a melting point of 105 to 107 °C. As to `CN(C)c1ccc(CNc2ncnc3c2ncn3C2OC(CO)C(O)C2O)cc1` (centres undefined), the melting point lay in the range of 170 to 171 °C.

`CC(=O)OCC1=C(C(=O)OCOC(=O)C(C)(C)C)N2C(=O)C(NC(=O)Cc3csc(=O)s3)C2SC1` (centres undefined) had a melting point of 135 °C. For `CSc1ccc(-c2nn(Cc3cccnc3)c(=O)cc2-c2ccc(F)cc2)cc1`, the melting point is 160 to 161 °C. In turn, `COc1cc(Cn2c(-c3ccc(O)cc3)c(C)c3cc(O)ccc32)ccc1OCCN1CCCCCC1` registered a melting point of 142 to 146 °C. Compound `O=C(Oc1ccccc1)c1ncn2c1[C@@H]1CCCN1C(=O)c1c(Cl)cccc1-2` registered a melting point of 211 to 212 °C. `COc1cc(C)c(C(=O)c2c(Cl)cnc(Cl)c2C(F)(F)F)c(OC)c1OC` gave a melting point of 106 to 109 °C. Regarding `CC(=C1SC(=O)NC1=O)c1ccc(OCCOc2c(-c3ccc(F)c(F)c3)n(C)c3ccccc3c2=O)c(F)c1`, the melting point lay within 204 to 206 °C. In the case of `CC(C)SCCCCCCCCCCCC(=O)Nc1ccccc1OCCCC(=O)O`, the melting point lay within 82 to 84 °C. In turn, `CC(C)C(=O)N1C2=NCCN2C(=O)c2nc(C(C)C)[nH]c21` displayed a melting point of 271 to 273 °C. For `CC(C)(C)CNc1cc(NCC(C)(C)C)nc(N2CCNCC2)n1`, the melting point is 132 to 136 °C. As to `CSCCC(CS)NC(=O)OC(C)(C)C` (centres undefined), the melting point was determined as 37 °C. As for `Cc1nc(N2CCN(Cc3ccncc3)C2=O)sc1C(=O)NCc1cccnc1`, the melting point lay in the range of 233 to 235 °C. With `Clc1ccc(Nc2nc3ccccc3c3[nH]c(C4CCCC4)nc23)cc1`, the melting point lay within 189 to 190 °C. Turning to `CCn1c(CO)nc2cccnc21`, the melting point was 117 to 121 °C. Consider `CC(C)(CNC(=O)[C@H](O)[C@H](O)COC(=O)Cc1ccccc1Nc1c(Cl)cccc1Cl)SN=O`, for which the melting point was 57 to 59 °C. Then `CCCCCCc1oc(C=Cc2ccccc2)nc1C(=O)O`, with 133 to 134 °C.

For the compound `CS/C(=N\O)C(F)(F)F`, the melting point fell in the range of 52 to 54 °C. Turning to `CC(C)c1ccc(-c2nc(Cl)c(C=O)n2Cc2ccc(-c3ccccc3S(=O)(=O)N=CN(C)C)cc2)cc1`, the melting point amounted to 177 °C.

`Cc1nc(C)c(C(=O)Nc2cc(Oc3ccc4nc(NC(=O)C5CC5)cn4n3)ccc2F)o1` returned a melting point of 202 °C. For `COc1ccnc(CSc2nc3c(C)c(OC(F)F)c(C)cc3[nH]2)c1C`, the melting point lay within 190 to 191 °C. Regarding `CN1CCN(c2n[nH]c3cc(F)ccc23)CC1`, the melting point lay within 164 to 166 °C. On to `COc1ccccc1NC(=S)c1ccc(C)cc1`, for which the melting point lay in the range of 91 to 93 °C. Then `COC1=CC(=O)C2=C(C1=O)C1C=CC2C1` (centres undefined), with 117 to 118 °C; and `CCCOc1cccc(C=C(C=O)C(C=O)=Cc2cccc(OCCC)c2)c1`, with 93 to 94 °C.

`CCCC1=C(C(=O)OCC)C(c2ccccc2Cl)c2c[nH]nc2N1` (centres undefined) gave a melting point of 202 to 205 °C. The compound `COC(=O)CCc1ccc(OCC2CCN(c3ccncc3)CC2)cc1` registered a melting point of 96.5 to 98.5 °C. `COc1ccc(CN2C(=O)CC(C)(C)c3cc(Br)ccc32)cc1`: the melting point was 118 to 119 °C. Compound `CC(C)C1(C)NC(c2ccc(C=O)cn2)=NC1=O` (centres undefined) returned a melting point of 106 to 108 °C. For the compound `COc1cccc2c1CN(c1c(F)cc3c(=O)c(C(=O)O)cn4c3c1OCC4C)C2` (centres undefined), the melting point fell in the range of 262 to 264 °C. To `Cc1cccc(C)c1NCCNCC(O)COc1cccc2[nH]ncc12` (centres undefined) belongs 127 to 128 °C; to `C[C@@H](NC(=O)c1cnc(-c2ccc(Cl)cc2)s1)[C@](O)(Cn1cncn1)c1ccc(F)cc1F`, 194 to 195 °C. As for `Cc1ccc(OC2CCN(C(=O)CNc3ccc4[nH]c(=O)sc4c3)CC2)cc1`, the melting point fell in the range of 189 to 191 °C. To `CCCCc1nn2c(C)c(C)nc2n1Cc1ccc(-c2ccccc2-c2nnn[nH]2)cc1` belongs 138 to 141 °C; to `COc1ccc(C(=O)c2ccccc2F)c(O)c1C`, 118 to 120 °C.

The compound `Nc1ccc(SCCOC2OC(CO)C(OC3OC(CO)C(O)C(O)C3O)C(O)C2O)cc1` (centres undefined) had a melting point of 104 to 106 °C.

The compound `Fc1ccc(C23CNCC(CO2)O3)cc1` (centres undefined) showed a melting point of 89 °C.

In turn, `COc1ccc(F)c(-n2c(=O)[nH]c3c(C(N)=O)nc(-c4cccc(O)c4)nc32)c1` displayed a melting point above 260 °C.

The compound `Cc1cccc(Nc2nc(Cl)nc(Cl)n2)c1C` returned a melting point of 186 to 188 °C. In the case of `Cn1cc(-c2cccc(-n3ncc4cc(C(C)(C)C)cc(F)c4c3=O)c2CO)cc(Nc2ccc(C(C)(C)C(=O)O)cn2)c1=O`, the melting point lay in the range of 218 to 220 °C.

`CC(=O)OC1CCC2(C)C(=CCC3C2CCC2(C)C(C(C)CO)=CCC32)C1` (centres undefined) displayed a melting point of 170 to 171 °C. Take `O=C(CCCCl)Nc1cccc2cccnc12`: the melting point lay in the range of 62 to 63 °C. `Cc1nc(CO)ccc1CO` returned a melting point of 94 to 96 °C.

`CCc1nc(/C=C/c2cn(-c3ccccc3)nc2OCc2ccc(OCc3nc(-c4cccc(C#N)c4)oc3C)c(OC)c2)cs1`: the melting point is 138 to 140 °C. In turn, `N#CC1=Cc2ccccc2C(N2CCN(N)CC2)c2ccccc21` (centres undefined) returned a melting point of 137 to 146 °C. Then `CCOP(=O)(OCC)Oc1ccc(/C=C2/C(=O)Nc3cc(OC)c(OC)cc32)cc1`, with 139 to 141 °C. As for `CCOCCNC(=O)c1ccc(CN2C(=O)C3(COc4cc5c(cc43)CCO5)c3ccccc32)cc1` (centres undefined), the melting point lay within 84 to 85 °C. Then `CCOc1nc(-c2ccco2)c2ncn(Cc3ccc(OC)cc3)c2n1`, with 137 to 138 °C; and `CCCCN(CC(O)C(Cc1ccccc1)NC(=O)C(C)CS(C)(=O)=O)S(=O)(=O)c1ccc(OC)cc1` (centres undefined), with 87 to 92 °C. Then `COc1ccc(CNc2ccc(C#N)cc2F)cc1`, with 113 °C; and `CN(C)c1ccc(C=O)c(OCC#N)c1`, with 124 to 125 °C. `CN1CCN(c2c(F)c(F)c([N+](=O)[O-])c(F)c2F)CC1`: the melting point lay within 77 to 78 °C. The compound `NC1=Nc2ccc(-c3cccc(Cl)c3)cc2C12CCCCC2` returned a melting point of 118 to 120 °C. Consider `CCOC(=O)C(C)(C)c1cn2nc(CCCCN3CCN(C(c4ccccc4)c4ccccc4)CC3)ccc2n1`, for which the melting point is 105 to 106 °C.

Regarding `Nc1nc[nH]c(=O)c1O`, the melting point is above 300 °C. Compound `Cc1nc2cc(/C=C/C(=O)NO)ccc2c(=O)n1CCc1ccccc1` returned a melting point of 227 to 229 °C.

As for `CNC(=O)C(C)n1c(-c2ccc(Cl)cc2)nc2cccnc21` (centres undefined), the melting point was in the range of 217 to 218 °C. In the case of `COc1ccc(C2SCC(C(=O)O)N2C(=O)c2ccccc2)cc1` (centres undefined), the melting point fell in the range of 108 to 110 °C. To `O=C(O)c1cn(C2COC2)c2c(F)c(N3CCCC3)c(F)cc2c1=O` belongs 261 to 262 °C; to `CC1(C)C(=O)Nc2ccc(-c3coc(C#N)c3)cc21`, 200 to 201 °C; to `N#Cc1c(-c2ccccc2)cc(N2CCOCC2)nc1Cl`, 198 to 200 °C. `O=C(O)c1cccc(-c2cccc3c2CN(Cc2cccc(C(F)(F)F)c2)C3=O)c1` gave a melting point of 190 to 191 °C.

In turn, `O=C(CC(=O)C1CC1)c1ccc(S(F)(F)(F)(F)F)cc1` registered a melting point of 70 to 72 °C. `O=C(NCCO)c1cccc(-c2ccc3c(c2)N(c2cc(Cl)cc(Cl)c2)CC3)c1`: the melting point is 108 to 109 °C. As to `CCOC(=O)c1c(-c2ccccc2Cl)c2cc(CC)ccc2[nH]c1=O`, the melting point is 199 to 200 °C.

`CC1(COCc2ccccc2)COC(C)(C(=O)N(C(N)=O)c2ccccc2)O1` (centres undefined) showed a melting point of 91 to 94 °C.

On to `CC(=O)Nc1ccc(O)cc1F`, for which the melting point stood at 124 °C. Compound `COCCCc1nc(C(F)F)ccc1C(=O)O` yielded a melting point of 86 to 87 °C.

Compound `COc1ccc(CC2NC(=O)NC2=O)cc1OCc1ccccc1` (racemic) registered a melting point of 155 to 157 °C.

For the compound `CC(/C=C/c1ccsc1-c1ccc2c(c1)C(C)(C)CCC2(C)C)=C\C(=O)O`, the melting point was 195 to 197 °C.

`CC(C)c1[nH]c(Cl)c(C#N)c1SC#N` gave a melting point of 159 °C. In the case of `CN(c1ccc(O)cc1)c1nc2cc(Cl)c(Cl)cc2nc1Cl`, the melting point came to 176 °C.

For `O=C(O)c1ccccc1C(=O)NCCCn1ccnc1`, the melting point is 160 to 162 °C.

As for `CC(=O)COC1CC2C3CCC4=CC(=O)C=CC4(C)C3(F)C(O)CC2(C)C1(O)C(=O)CCl` (centres undefined), the melting point fell in the range of 226 to 227 °C.

On to `CCOC(=O)c1c(-c2ccccc2)n(-c2ccc(OC)cc2)c2ccccc2c1=O`, for which the melting point is 246 to 247 °C. Then `CCc1cc2c(-c3ccccc3OC)c(NC(=O)Nc3cc(C)c(OC(C)=O)c(C)c3)cnc2s1`, with 217 to 218 °C.

For the compound `CC(C)Cc1nc2sc3c(NCc4cccnc4)ncnc3c2c2c1COC(C)(C)C2`, the melting point lay within 244 to 245 °C. `COC(=O)CCCc1cc2nc(Cl)ccc2n1S(=O)(=O)c1cc(Cl)ccc1Cl` showed a melting point of 95 to 105 °C. Then `O=C1c2cc(O)ccc2OCN1CCO`, with 148 to 150 °C. The compound `CCn1c(C)c(C2(N(c3ccccc3)c3ccccc3)OC(=O)c3nccnc32)c2ccccc21` (centres undefined) returned a melting point of 98 to 100 °C. The compound `COc1ccc(-c2[nH]nc3c2C(=O)c2c(NC(=O)CN)cccc2-3)cc1` had a melting point above 300 °C. On to `N#Cc1ccc2c(c1)C(=C(Cl)Cl)OC(C(Cl)(Cl)Cl)O2` (centres undefined), for which the melting point fell in the range of 125 to 126 °C. Compound `COc1cc(OC)cc(C(=O)N2CCc3cc(O)ccc3C2)c1` registered a melting point of 170 to 171 °C.

`CC(C)(C)c1ncc(OCc2ccccc2)c(Cl)n1` returned a melting point of 51 °C.
